Experimental data reported in patent US20190300851A1, “HUMAN STEM CELL DERIVED ENDOTHELIAL CELLS, ENDOTHELIAL-HEPATOCYTE CO-CULTURE SYSTEM AND USES THEREOF” (AGENCY FOR SCIENCE, TECHNOLOGY AND RESEARCH, priority 2016, published 2019).
“Also recorded” adds a separate entry of the source.

How the values were obtained:
NFκB [1] = test: NFκB nuclear translocation (immunostaining) in IL-1β-stimulated hPSC-ECs, monoculture; format: cell-based, human
Method: (§1) After the hPSC colonies attached, they were first induced to drive early mesoderm differentiation for 36 hours, using a chemically defined media, supplemented with human recombinant FGF2 (20 ng/ml, R&D Systems, cat. no. 233-FB), LY294002 (10 μM, Sigma, cat. no. L9908), and human recombinant BMP4 (10 ng/ml, R&D Systems, cat. no. 314-BP). Lateral plate mesoderm was further induced for another 3.5 days in media supplemented with human recombinant FGF2 (20 ng/ml) and BMP4 (50 ng/ml), with media change every 2 days. On day 5, the lateral plate mesoderm population was trypsinized using TrypLE Express (Gibco, cat. no. 12604) and plated on matrigel-coated plates in the same basal media supplemented with FGF2 (4 ng/ml), SB431542 (10 μM, Sigma, cat. no. S4317) and VEGF (50 ng/ml, R&D Systems, cat. no. 293-VE) with media change every 2-3 days. On day 10, PECAM1-expressing endothelial cells were sorted using fluorescence-activated cell sorting with PECAM1 antibody (Biolegend, cat. no. 303110). The PECAM1+ cells were plated at a density of 5×10^4/cm^2 onto collagen I-coated plate in commercial media EGM-2 (Lonza, cat. no. CC-3162). For every 500 ml EGM-2 media used, the following supplements are included: human epidermal growth factor (0.5 ml); VEGF, 0.5 ml; R3-insulin growth factor-1, 0.5 ml; Ascorbic acid, 0.5 ml; Hydrocortisone, 0.2 ml; hFibroblast growth factor-beta, 2.0 ml; FBS, 10.0 ml; Gentamicin Amphotericin, 0.5 ml. hPSC-ECs were passaged using TrypLE Express when they reached more than 75% confluency. Fresh complete EGM-2 media were replaced every 2-3 days. All experiments were performed on cells up to passage 10. hPSC-ECs derived from three different cell lines, H9-ESCs (FIGS. 1-5), IMR90-iPSCs and BJ-iPSCs (FIGS. 7-8), were functionally characterized and used in inflammatory activation assays. In EC marker and functional characterization, human coronary artery ECs (HCAECs) were used as positive control, while HeLa cells and human hepatocellular carcinoma cells (HUH7) were used as negative controls.
(§2) Cells were fixed with 4% paraformaldehyde (Nacalai Tesque, cat. no. 09154-14) and permeabilized by 0.5% Triton X-100 (Acros Organics, cat. no. 215680010) in PBS with Ca^2+ and MG^2+ at room temperature. Blocking was performed using PBS with 10% serum overnight at 4° C. Cells were incubated with the respective primary antibody diluted in 0.1% serum containing PBS for 1 hour and secondary antibodies in 0.1% serum containing PBS for another hour. Washes were performed twice using 0.1% serum containing PBS. DAPI (1 μg/ml, Thermo, cat. no. D3571) was used to stain the cell nucleus for 10 min.

IL-8 [2] = test: IL-8 ELISA of conditioned media of IL-1β-stimulated hPSC-ECs, monoculture; format: cell-based, human
Method: as §1
(§3) Conditioned EGM-2 media were collected, and concentration of human IL-8 was determined using the human IL-8 ELISA kit (Invitrogen, cat. no. KHC0081) according to manufacturer's instructions.

[3] = system: IL-1β-stimulated hPSC-ECs; test: Inflammatory marker gene expression (qPCR) in IL-1β-stimulated hPSC-ECs, monoculture; format: cell-based
Method: as §1
Total RNA was prepared using RNeasy mini kit (Qiagen, cat. no. 74104). Each RNA sample (250 ng) was reverse transcribed into cDNA using Maxima First Strand cDNA Synthesis kit (Thermo, cat. no. K1641). qPCR was performed on a StepOnePlus Real-Time PCR system (Thermo) using FAST SYBR green master mix (Thermo, cat. no. 4385616). Expression levels were normalized to the housekeeping gene glyceraldehyde 3-phosphate dehydrogenase (GAPDH).

NFκB [4] = test: hPSC-HEP conditioned media on IL-1β-stimulated hPSC-ECs: NFκB nuclear translocation; format: cell-based, human; conditions: hPSC-HEP conditioned media (10 μM, 48 hour) on IL-1β-stimulated hPSC-ECs
Method: (§4) HPSC-HEPs (1.25×10^5 cells/cm^2) were cultured for 48 hour in 1:1 William's E medium+EGM-2 without serum containing 10 μM Quercetin or 10 μM Genistein. Conditioned media from hPSC-HEPs treated with quercetin or genistein were collected, and added to hPSC-ECs (that were serum starved overnight) along with 20 ng/ml of IL-13 for determination of NFκB nuclear colocalization (at 1 hour), gene expression profile of inflammatory markers (at 6 hour), and IL-8 protein levels (1 day) upon inflammation.
as §2

primary rat hepatocytes = test: LC-MS metabolic profile of nutraceuticals by primary rat hepatocytes; format: in vitro ADME; conditions: 10 μM, LC-MS
Method: The metabolic potential of the hPSC-HEPs and primary rat hepatocytes (freshly isolated according to our previously established protocol) were tested by exposing them to nutraceuticals quercetin and genistein (10 μM) over different durations. Internal standard (Emodin, 10 ng/ml) was added to the conditioned media. The SPE column (Phenomenex, Strata C18-E, 55 μm, 70 Å) was conditioned by washing with 1 ml methanol and then 2 ml DI water. Conditioned media was added into the column and 1.5 mL 30% methanol was added to elute the impurity such as phenol red in the medium. 0.1% Formic acid methanol was added to the column to elute all the metabolites and internal standard out to a 15 mL tube. Liquid in the 15 mL tube was dried under N2 in a sample concentrator with 30° C. heater. After drying the sample, 100 μL of 0.1% formic acid methanol was added to the 15 mL tube and vortex for 30 s and transfer to another 1.5 mL tube. The samples were then centrifuged at 13,000 rpm for 10 min at 4° C. and 10 μl of the supernatant was injected into LC-MS. High performance liquid chromatography combined with electrospray ionization ion trap time-of-flight multistage mass spectrometry (HPLC-DAD-ESI-ITTOF-MSn) analyses were performed with a Shimadzu LCMS-IT-TOF instrument, which was composed of two LC-20AD pumps, an SIL-20AC autosampler, a CTO-20A column oven, a CBM-20A system controller, an ESI ion source, and an IT-TOF mass spectrometer (Shimadzu, Kyoto, Japan).

IL-8 [5] = test: IL-8 ELISA of conditioned media of IL-1β-stimulated hPSC-HEPs; format: cell-based, human; conditions: 10 μM, 48 hours
Method: Hepatocytes were generated from hPSCs by a growth factor-based differentiation protocol described in our previous protocol. After 20 days of differentiation, the cells were harvested using a serial 2× TrypLE Express treatment and further dissociated into single cells by passing them through a 40 μm cell strainer. These single cells were then seeded at 2.5×10^5 cells per well in a Collagen I (50 μg/ml, Biolaboratories, Cat. No.: 354236)-coated dishes. Attachment and recovery were promoted by seeding them in step IV differentiation medium with Hepatocyte growth factor (R&D, Cat. No.: 294-HGN-005), Follistatin (R&D, Cat. No.: FS-288), Oncostatin (R&D, Cat. No.: 295-OM-010) and Y-27632 (Rock Inhibitor) to prevent anoikis in the freshly harvested hPSC-HEPs. Next day, media was changed to Williams E medium (Sigma, Cat. No.: W1878) without serum and cells were serum starved overnight prior to nutraceutical treatments. Nutraceuticals quercetin (Sigma, Cat. No.: Q4951) and genistein (Sigma, Cat. No.: G6649) were administered at a single dose of 10 μM. Hepatocytes in this work were derived from H9-ESCs. […]
as §3

[6] = system: co-culture of hPSC-ECs and hPSC-HEPs; test: LC-MS metabolite profile in co-cultured media of hPSC-ECs and hPSC-HEPs; format: in vitro ADME, human; conditions: endothelial-hepatic co-culture, LC-MS
Method: (§5) H9-ESCs were used to generate the ECs and hepatocytes for co-culture experiments and assays with nutraceuticals. Both cell types were derived from an isogenic source of hPSC to ensure a robust endothelial-hepatic model without confounding phenotypic differences due to genetic variations. The IBIDI μ-slide 2×9 wells were used for creating the co-culture setup. Each minor well was first coated with Collagen I and then a total of 2.5×10^5 hPSC-ECs and hPSC-HEPs were seeded in individual wells in a 1:1 ratio within a major well to allow equivalent contribution of paracrine factors between the two cell types (FIG. 5A). After cell attachment, the media was changed to 1:1 William's E and EGM-2 without serum, to be commonly shared by hPSC-ECs and hPSC-HEPs in a major well. Upon overnight serum starvation, the co-cultures were pre-conditioned with 10 μM of Quercetin or Genistein for 48 hours prior to IL-1β stimulation.
(§6) The metabolic potential of the hPSC-HEPs and primary rat hepatocytes (freshly isolated according to our previously established protocol) were tested by exposing them to nutraceuticals quercetin and genistein (10 μM) over different durations. Internal standard (Emodin, 10 ng/ml) was added to the conditioned media. The SPE column (Phenomenex, Strata C18-E, 55 μm, 70 Å) was conditioned by washing with 1 ml methanol and then 2 ml DI water. […]

NFκB [7] = test: Endothelial-hepatocyte co-culture: NFκB nuclear translocation in IL-1β-stimulated hPSC-ECs; format: cell-based, human; conditions: co-culture of hPSC-ECs with hPSC-HEPs, 10 μM for 48 hours prior to IL-1β stimulation
Method: as §5
Cells were fixed with 4% paraformaldehyde (Nacalai Tesque, cat. no. 09154-14) and permeabilized by 0.5% Triton X-100 (Acros Organics, cat. no. 215680010) in PBS with Ca^2+ and MG^2+ at room temperature. Blocking was performed using PBS with 10% serum overnight at 4° C. Cells were incubated with the respective primary antibody diluted in 0.1% serum containing PBS for 1 hour and secondary antibodies in 0.1% serum containing PBS for another hour. […]

IL-8 [8] = test: Endothelial-hepatocyte co-culture: IL-8 protein; format: cell-based, human; conditions: co-culture of hPSC-ECs with hPSC-HEPs, 10 μM for 48 hours prior to IL-1β stimulation
Method: as §5, §3

[9] = system: hPSC-HEP conditioned media treated on hPSC-ECs; test: LC-MS metabolite profile in hPSC-HEP conditioned media treated on hPSC-ECs; format: in vitro ADME, human; conditions: conditioned media setting
Method: as §4
as §6, with “water. Conditioned media was added into the column and 1.5 mL 30% methanol was added to elute the impurity such as phenol red in the medium. 0.1% Formic acid methanol was added to the column to elute all the metabolites and internal standard out to a 15 mL tube. Liquid in the 15 mL tube was dried under N2 in a sample concentrator with 30° C. heater.” for “water.”

[10] = system: IL-1β-stimulated hPSC-HEPs; test: Inflammatory marker gene expression (qPCR) in IL-1β-stimulated hPSC-HEPs; format: cell-based, human; conditions: 10 μM, 48 hours
Method: (§7) Hepatocytes were generated from hPSCs by a growth factor-based differentiation protocol described in our previous protocol. After 20 days of differentiation, the cells were harvested using a serial 2× TrypLE Express treatment and further dissociated into single cells by passing them through a 40 μm cell strainer. These single cells were then seeded at 2.5×10^5 cells per well in a Collagen I (50 μg/ml, Biolaboratories, Cat. No.: 354236)-coated dishes. Attachment and recovery were promoted by seeding them in step IV differentiation medium with Hepatocyte growth factor (R&D, Cat. No.: 294-HGN-005), Follistatin (R&D, Cat. No.: FS-288), Oncostatin (R&D, Cat. No.: 295-OM-010) and Y-27632 (Rock Inhibitor) to prevent anoikis in the freshly harvested hPSC-HEPs. Next day, media was changed to Williams E medium (Sigma, Cat. No.: W1878) without serum and cells were serum starved overnight prior to nutraceutical treatments. Nutraceuticals quercetin (Sigma, Cat. No.: Q4951) and genistein (Sigma, Cat. No.: G6649) were administered at a single dose of 10 μM. Hepatocytes in this work were derived from H9-ESCs. In hepatic characterization, primary human hepatocytes (PHH) and HUH7 cells were used as positive controls, while HeLa cells were used as negative control.
Total RNA was prepared using RNeasy mini kit (Qiagen, cat. no. 74104). […]

hPSC-HEPs = test: LC-MS metabolic profile of nutraceuticals by hPSC-HEPs; format: in vitro ADME, human; conditions: 10 μM, LC-MS
Method: as §7
as §6, with “water. Conditioned media was added into the column and 1.5 mL 30% methanol was added to elute the impurity such as phenol red in the medium. 0.1% Formic acid methanol was added to the column to elute all the metabolites and internal standard out to a 15 mL tube. Liquid in the 15 mL tube was dried under N2 in a sample concentrator with 30° C. heater.” for “water.”

[11] = plasma; cited from earlier work
[12] = BJ-ECs and IMR90-ECs, IL-1β stimulation

## IL-1β: human recombinant inflammatory cytokine, interleukin-1 beta, used to stimulate inflammation [reference compound]
NFκB [1]; [12]
  NFκB nuclear translocation: increase
NFκB [1]; H9-derived hPSC-ECs, IL-1β 20 ng/ml, 1 hour
  nuclear translocation of NFκB: evident
IL-8 [2]; [12]
  IL-8 production: elevated
IL-8 [2]; H9-derived hPSC-ECs, IL-1β-stimulated
  production of IL-8 from conditioned media versus unstimulated cells: significantly higher
[3]; [12]
  expression of inflammatory genes: up-regulation
[3]; H9-derived hPSC-ECs, human recombinant IL-1β 20 ng/ml, 6 hours
  expression of inflammatory genes versus unstimulated: significant up-regulation

## O=c1c(-c2ccc(O)cc2)coc2cc(O)cc(O)c12 [genistein]
NFκB [4]
  NFκB nuclear translocation: did not seem to inhibit
Primary rat hepatocytes; freshly isolated primary rat hepatocytes
  level of parent nutraceutical over time: declined over time
Primary rat hepatocytes; primary rat hepatocytes
  formation of metabolites: giving rise to metabolites
IL-8 [5]
  production of IL-8 protein from conditioned media: significantly suppressed
[6]
  metabolites detectable in medium: detectable levels of various metabolites
NFκB [7]
  NFκB nuclear translocation (colocalization): significant suppression; also recorded: significantly decreased
IL-8 [8]
  IL-8 protein levels / secretion: remarkably decreased; also recorded: significantly reduced
[9]
  metabolites detectable in medium: but not in the conditioned media setting
[10]
  inflammatory gene (marker) expression: significant reduction; also recorded: decreased most of the inflammatory marker expression
NFκB [1]; 10 μM, IL-1β-stimulated hPSC-ECs, monoculture
  NFκB nuclear translocation levels: remained elevated
IL-8 [2]; 10 μM, 48 hours, IL-1β-stimulated hPSC-ECs, monoculture
  IL-8 protein levels from conditioned media: no significant reduction
hPSC-HEPs; hPSC-HEPs
  levels of metabolites over time: increased over time; also recorded: increased with time; also recorded: giving rise to metabolites
hPSC-HEPs; in the presence of hPSC-HEPs
  level of parent nutraceutical over time: gradually declined over time
[3]; 10 μM, up to 72 hours, IL-1β-stimulated hPSC-ECs, monoculture
  gene expression of inflammatory markers versus IL-1β stimulated levels: did not show substantial reduction
[11]
  plasma concentrations: 0.03 to 16.34 µM
